The assay has as its target T1, Induced myeloid leukemia cell differentiation protein Mcl-1 [171-327] (Homo sapiens, UniProt Q07820).
T1 construct: 171-327
In words: TR-FRET Binding A. To be noted: pH 7.4; 24 °C. How it is done:
Compound IC50 values were assessed following a 10-point, half-log10 dilution schema starting at 10 uM compound concentration. The assay was performed in 384-well LV plates (Matrix 4365, Thermo Scientific) and run in the presence and absence of the compound of interest. Each well of 12 uL assay mixture contained 10 mM Tris (pH 7.4), 1 mM DTT, 0.005% Tween-20, 150 mM NaCl, 10% DMSO, 3 nM GST-Mcl-1, 1 nM LanthaScreen Eu-tagged GST antibody (#PV5594, Invitrogen, Life Technologies), and 8 nM fluorescently labeled peptide. Reactions were incubated at 24 °C for 60 min before reading on a Tecan F500 spectrofluorometer with excitation at 340 nm and emission at 620 nm and 665 nm. Subsequently, the ratio of fluorescence emission intensity at 665 nm to 620 nm was calculated for each reaction, and the dose response of the ratio to testing compound concentration was fitted to a select fit model that will provide the best fit quality using automatic parameters to derive IC50 values for each testing compound.
On the technique in general: TR-FRET usually uses a lanthanide donor and a delayed reading to cut background.
T1 sequence (Q07820 171-327): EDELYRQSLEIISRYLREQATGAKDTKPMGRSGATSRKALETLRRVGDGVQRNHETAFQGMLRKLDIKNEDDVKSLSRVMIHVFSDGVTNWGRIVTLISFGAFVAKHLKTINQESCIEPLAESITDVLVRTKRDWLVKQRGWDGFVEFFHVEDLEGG
As to `Cc1c(-c2cccc3c(CCCOc4cccc5ccccc45)c(C(=O)O)[nH]c23)c(COc2ccc(B(O)O)c(C=O)c2)nn1C` [7-(3-((4-Borono-3-formylphenoxy)methyl)-1,5-dimethyl-1Hpyrazol-4-yl)-3-(3-(naphthalen-1-yloxy)propyl)-1H-indole-2-carboxylic acid, 5], the IC50 is 3.4 nM and affinity was put at a Ki of 0.9 nM.

`Cc1c(-c2cccc3c(CCCOc4cccc5ccccc45)c(C(=O)O)[nH]c23)c(COc2ccccc2)nn1C` [Mcl-1 inhibitor 10]: the IC50 came to 383 nM and the affinity, expressed as Ki, was 104 nM.

The molecule `CC(=O)c1cc(OCc2nn(C)c(C)c2-c2cccc3c(CCCOc4cccc5ccccc45)c(C(=O)O)[nH]c23)ccc1B(O)O` [7-(3-((3-Acetyl-4-boronophenoxy)methyl)-1,5-dimethyl-1H-pyrazol-4-yl)-3-(3-(naphthalen-1-yloxy)propyl)-1H-indole-2-carboxylic acid, 6] yielded an IC50 of 4.7 nM and a Ki of 1.2 nM.

Regarding `Cc1c(-c2cccc3c(CCCOc4cccc5ccccc45)c(C(=O)O)n(C)c23)c(COc2ccc(B(O)O)c(C=O)c2)nn1C` [7-(3-((4-Borono-3-formylphenoxy)methyl)-1,5-dimethyl-1Hpyrazol-4-yl)-1-methyl-3-(3-(naphthalen-1-yloxy)propyl)-1H-indole-2-carboxylic acid, 11], the IC50 turned out to be 4.2 nM and the Ki was determined as 1.2 nM.

Consider `Cc1c(-c2cccc3c(CCCOc4cccc5ccccc45)c(C(=O)O)[nH]c23)c(COc2cccc(C=O)c2)nn1C` [7-(3-((3-formylphenoxy)methyl)-1,5-dimethyl-1H-pyrazol-4-yl)-3-(3-(naphthalen-1-yloxy)propyl)-1H-indole-2-carboxylic acid, 7], for which the IC50 came out at 59.5 nM and the Ki came out at 16 nM.

Regarding `CC(=O)c1cccc(OCc2nn(C)c(C)c2-c2cccc3c(CCCOc4cccc5ccccc45)c(C(=O)O)[nH]c23)c1` [7-(3-((3-Acetylphenoxy)methyl)-1,5-dimethyl-1H-pyrazol-4-yl)-3-(3-(naphthalen-1-yloxy)propyl)-1H-indole-2-carboxylic acid, 8], the IC50 worked out at 237 nM and the affinity, expressed as Ki, was 64 nM.

`CCc1nn(C)c(CC)c1-c1cccc2c(CCCOc3cccc4ccccc34)c(C(=O)O)n(CCN3CCOCC3)c12` [Mcl-1 inhibitor 12]: the IC50 stood at 5.96 nM and the Ki was 1.6 nM.

A word on the IC50: it is the point on the concentration scale where inhibition reaches its midpoint. Low values mean greater potency in that assay, high ones weaker potency in that assay. The term Ki denotes a dissociation constant, usually derived from enzyme kinetics or from competition with a known ligand.

These data come from BindingDB's records for doi:10.1038/nchembio.2174 (Oncology Innovative Medicines Unit, 2016).
